Assay results reported in ChEMBL document CHEMBL3621169, “Synthesis of tetrazole compounds as a novel type of potential antimicrobial agents and their synergistic effects with clinical drugs and interactions with calf thymus DNA” (Medchemcomm, 2015).
Values after ≈ are worked out from the molar mass of the structure shown.

Key:
Shigella dysenteriae = assay: Antibacterial activity against Shigella dysenteriae ATCC 51252 after 24 hrs by micro broth dilution method; type: functional; conditions: ATCC 51252, 24 h
Pseudomonas aeruginosa = assay: Antibacterial activity against Pseudomonas aeruginosa ATCC 27853 after 24 hrs by micro broth dilution method; type: functional; conditions: ATCC 27853, 24 h
Cyberlindnera jadinii = assay: Antifungal activity against Candida utilis ATCC 9950 after 24 hrs by micro broth dilution method; type: functional; conditions: Williopsis jadinii, ATCC 9950, 24 h
Escherichia coli = assay: Antibacterial activity against Escherichia coli DH52 after 24 hrs by micro broth dilution method; type: functional; conditions: DH52, 24 h
Staphylococcus aureus [1] = assay: Antibacterial activity against methicillin-resistant Staphylococcus aureus N315 after 24 hrs by micro broth dilution method; type: functional; conditions: N315, 24 h
Micrococcus luteus = assay: Antibacterial activity against Micrococcus luteus ATCC 4698 after 24 hrs by micro broth dilution method; type: functional; conditions: ATCC 4698, 24 h
Aspergillus flavus = assay: Antifungal activity against Aspergillus flavus after 24 hrs by micro broth dilution method; type: functional
Bacillus spizizenii = assay: Antibacterial activity against Bacillus subtilis ATCC 6633 after 24 hrs by micro broth dilution method; type: functional; conditions: ATCC 6633, 24 h
Staphylococcus aureus [2] = assay: Antibacterial activity against Staphylococcus aureus ATCC 25923 after 24 hrs by micro broth dilution method; type: functional; conditions: ATCC 25923, 24 h
Candida = assay: Antifungal activity against Candida mycoderma after 24 hrs by micro broth dilution method; type: functional
Bacillus sp. = assay: Antibacterial activity against Bacillus proteus ATCC 13315 after 24 hrs by micro broth dilution method; type: functional; conditions: Bacillus sp. (in: firmicutes), ATCC 13315, 24 h
Candida albicans = assay: Antifungal activity against Candida albicans ATCC 90029 after 24 hrs by micro broth dilution method; type: functional; conditions: ATCC 90029, 24 h
[3] = Ionization constant, pKa of the compound by UV spectroscopy; type: physicochemical
[4] = n-octanol/water partition coefficient, log P of the compound at 25 deg C after 24 hrs by saturation shake flask based UV spectroscopy; type: physicochemical

## N#CCN(Cc1ccc(F)cc1F)c1ccccc1
Shigella dysenteriae
  MIC: 256 µg/mL (≈ 991 µM)
Pseudomonas aeruginosa
  MIC: 128 µg/mL (≈ 496 µM)
Cyberlindnera jadinii
  MIC: 512 µg/mL (≈ 1980 µM)
Escherichia coli
  MIC: 64 µg/mL (≈ 248 µM)
Staphylococcus aureus [1]
  MIC: 256 µg/mL (≈ 991 µM)
Micrococcus luteus
  MIC: 256 µg/mL (≈ 991 µM)
Aspergillus flavus
  MIC: 256 µg/mL (≈ 991 µM)
Bacillus spizizenii
  MIC: 256 µg/mL (≈ 991 µM)
Staphylococcus aureus [2]
  MIC: 128 µg/mL (≈ 496 µM)
Candida
  MIC: 256 µg/mL (≈ 991 µM)
Bacillus sp.
  MIC: 256 µg/mL (≈ 991 µM)
Candida albicans
  MIC: 128 µg/mL (≈ 496 µM)

## Clc1ccc(CN(Cc2nnn[nH]2)c2ccccc2)c(Cl)c1
[3]
  pKa: 4.54
[4]
  logP at 24 h: 1.67
Shigella dysenteriae
  MIC: 64 µg/mL (≈ 191 µM)
Pseudomonas aeruginosa
  MIC: 32 µg/mL (≈ 95.7 µM)
Cyberlindnera jadinii
  MIC: 8 µg/mL (≈ 23.9 µM)
Escherichia coli
  MIC: 16 µg/mL (≈ 47.9 µM)
Staphylococcus aureus [1]
  MIC: 64 µg/mL (≈ 191 µM)
Micrococcus luteus
  MIC: 64 µg/mL (≈ 191 µM)
Aspergillus flavus
  MIC: 16 µg/mL (≈ 47.9 µM)
Bacillus spizizenii
  MIC: 32 µg/mL (≈ 95.7 µM)
Staphylococcus aureus [2]
  MIC: 32 µg/mL (≈ 95.7 µM)
Candida
  MIC: 8 µg/mL (≈ 23.9 µM)
Bacillus sp.
  MIC: 32 µg/mL (≈ 95.7 µM)
Candida albicans
  MIC: 16 µg/mL (≈ 47.9 µM)

## Cc1ccc(N(CC#N)Cc2ccc(F)cc2F)cc1
Shigella dysenteriae
  MIC: 128 µg/mL (≈ 470 µM)
Pseudomonas aeruginosa
  MIC: 256 µg/mL (≈ 940 µM)
Cyberlindnera jadinii
  MIC: 128 µg/mL (≈ 470 µM)
Escherichia coli
  MIC: 128 µg/mL (≈ 470 µM)
Staphylococcus aureus [1]
  MIC: 256 µg/mL (≈ 940 µM)
Micrococcus luteus
  MIC: 128 µg/mL (≈ 470 µM)
Aspergillus flavus
  MIC: 64 µg/mL (≈ 235 µM)
Bacillus spizizenii
  MIC: 256 µg/mL (≈ 940 µM)
Staphylococcus aureus [2]
  MIC: 128 µg/mL (≈ 470 µM)
Candida
  MIC: 128 µg/mL (≈ 470 µM)
Bacillus sp.
  MIC: 128 µg/mL (≈ 470 µM)
Candida albicans
  MIC: 64 µg/mL (≈ 235 µM)

## OC(Cn1cncn1)(Cn1cncn1)c1ccc(F)cc1F [FLUCONAZOLE]
Cyberlindnera jadinii
  MIC: 1 µg/mL (≈ 3.27 µM)
Aspergillus flavus
  MIC: 64 µg/mL (≈ 209 µM)
Candida
  MIC: 2 µg/mL (≈ 6.53 µM)
Candida albicans
  MIC: 0.5 µg/mL (≈ 1.63 µM)

## COc1ccc(N(CC#N)Cc2ccc(F)cc2F)cc1
Shigella dysenteriae
  MIC: 256 µg/mL (≈ 888 µM)
Pseudomonas aeruginosa
  MIC: 128 µg/mL (≈ 444 µM)
Cyberlindnera jadinii
  MIC: 128 µg/mL (≈ 444 µM)
Escherichia coli
  MIC: 256 µg/mL (≈ 888 µM)
Staphylococcus aureus [1]
  MIC: 256 µg/mL (≈ 888 µM)
Micrococcus luteus
  MIC: 128 µg/mL (≈ 444 µM)
Aspergillus flavus
  MIC: 128 µg/mL (≈ 444 µM)
Bacillus spizizenii
  MIC: 128 µg/mL (≈ 444 µM)
Staphylococcus aureus [2]
  MIC: 256 µg/mL (≈ 888 µM)
Candida
  MIC: 256 µg/mL (≈ 888 µM)
Bacillus sp.
  MIC: 256 µg/mL (≈ 888 µM)
Candida albicans
  MIC: 128 µg/mL (≈ 444 µM)

## CCCCCCN(CC#N)c1ccccc1
Shigella dysenteriae
  MIC: 512 µg/mL (≈ 2370 µM)
Pseudomonas aeruginosa
  MIC: 512 µg/mL (≈ 2370 µM)
Cyberlindnera jadinii
  MIC: 256 µg/mL (≈ 1180 µM)
Escherichia coli
  MIC: 128 µg/mL (≈ 592 µM)
Staphylococcus aureus [1]
  MIC: 512 µg/mL (≈ 2370 µM)
Micrococcus luteus
  MIC: 256 µg/mL (≈ 1180 µM)
Aspergillus flavus
  MIC: 128 µg/mL (≈ 592 µM)
Bacillus spizizenii
  MIC: 256 µg/mL (≈ 1180 µM)
Staphylococcus aureus [2]
  MIC: 256 µg/mL (≈ 1180 µM)
Candida
  MIC: 256 µg/mL (≈ 1180 µM)
Bacillus sp.
  MIC: 256 µg/mL (≈ 1180 µM)
Candida albicans
  MIC: 256 µg/mL (≈ 1180 µM)

## CCCCCCCCN(CC#N)c1ccccc1
Shigella dysenteriae
  MIC: 512 µg/mL (≈ 2100 µM)
Pseudomonas aeruginosa
  MIC: 512 µg/mL (≈ 2100 µM)
Cyberlindnera jadinii
  MIC: 256 µg/mL (≈ 1050 µM)
Escherichia coli
  MIC: 128 µg/mL (≈ 524 µM)
Staphylococcus aureus [1]
  MIC: 256 µg/mL (≈ 1050 µM)
Micrococcus luteus
  MIC: 256 µg/mL (≈ 1050 µM)
Aspergillus flavus
  MIC: 256 µg/mL (≈ 1050 µM)
Bacillus spizizenii
  MIC: 256 µg/mL (≈ 1050 µM)
Staphylococcus aureus [2]
  MIC: 256 µg/mL (≈ 1050 µM)
Candida
  MIC: 64 µg/mL (≈ 262 µM)
Bacillus sp.
  MIC: 256 µg/mL (≈ 1050 µM)
Candida albicans
  MIC: 256 µg/mL (≈ 1050 µM)

## N#CCN(Cc1cccc(F)c1)c1ccccc1
Shigella dysenteriae
  MIC: 128 µg/mL (≈ 533 µM)
Pseudomonas aeruginosa
  MIC: 256 µg/mL (≈ 1070 µM)
Cyberlindnera jadinii
  MIC: 128 µg/mL (≈ 533 µM)
Escherichia coli
  MIC: 256 µg/mL (≈ 1070 µM)
Staphylococcus aureus [1]
  MIC: 128 µg/mL (≈ 533 µM)
Micrococcus luteus
  MIC: 256 µg/mL (≈ 1070 µM)
Aspergillus flavus
  MIC: 256 µg/mL (≈ 1070 µM)
Bacillus spizizenii
  MIC: 128 µg/mL (≈ 533 µM)
Staphylococcus aureus [2]
  MIC: 64 µg/mL (≈ 266 µM)
Candida
  MIC: 128 µg/mL (≈ 533 µM)
Bacillus sp.
  MIC: 128 µg/mL (≈ 533 µM)
Candida albicans
  MIC: 64 µg/mL (≈ 266 µM)

## CCCCCCCCCCN(CC#N)c1ccccc1
Shigella dysenteriae
  MIC: 512 µg/mL (≈ 1880 µM)
Pseudomonas aeruginosa
  MIC: 256 µg/mL (≈ 940 µM)
Cyberlindnera jadinii
  MIC: 256 µg/mL (≈ 940 µM)
Escherichia coli
  MIC: 64 µg/mL (≈ 235 µM)
Staphylococcus aureus [1]
  MIC: 128 µg/mL (≈ 470 µM)
Micrococcus luteus
  MIC: 128 µg/mL (≈ 470 µM)
Aspergillus flavus
  MIC: 128 µg/mL (≈ 470 µM)
Bacillus spizizenii
  MIC: 64 µg/mL (≈ 235 µM)
Staphylococcus aureus [2]
  MIC: 128 µg/mL (≈ 470 µM)
Candida
  MIC: 128 µg/mL (≈ 470 µM)
Bacillus sp.
  MIC: 128 µg/mL (≈ 470 µM)
Candida albicans
  MIC: 128 µg/mL (≈ 470 µM)

## Cc1ccc(N(CC#N)Cc2ccc(Cl)cc2Cl)cc1
Shigella dysenteriae
  MIC: 256 µg/mL (≈ 839 µM)
Pseudomonas aeruginosa
  MIC: 256 µg/mL (≈ 839 µM)
Cyberlindnera jadinii
  MIC: 64 µg/mL (≈ 210 µM)
Escherichia coli
  MIC: 256 µg/mL (≈ 839 µM)
Staphylococcus aureus [1]
  MIC: 128 µg/mL (≈ 419 µM)
Micrococcus luteus
  MIC: 512 µg/mL (≈ 1680 µM)
Aspergillus flavus
  MIC: 128 µg/mL (≈ 419 µM)
Bacillus spizizenii
  MIC: 512 µg/mL (≈ 1680 µM)
Staphylococcus aureus [2]
  MIC: 128 µg/mL (≈ 419 µM)
Candida
  MIC: 512 µg/mL (≈ 1680 µM)
Bacillus sp.
  MIC: 512 µg/mL (≈ 1680 µM)
Candida albicans
  MIC: 64 µg/mL (≈ 210 µM)

## CCn1cc(C(=O)O)c(=O)c2cc(F)c(N3CCNCC3)cc21 [NORFLOXACIN]
Shigella dysenteriae
  MIC: 0.5 µg/mL (≈ 1.57 µM)
Pseudomonas aeruginosa
  MIC: 0.5 µg/mL (≈ 1.57 µM)
Escherichia coli
  MIC: 0.5 µg/mL (≈ 1.57 µM)
Staphylococcus aureus [1]
  MIC: 0.5 µg/mL (≈ 1.57 µM)
Micrococcus luteus
  MIC: 0.5 µg/mL (≈ 1.57 µM)
Bacillus spizizenii
  MIC: 1 µg/mL (≈ 3.13 µM)
Staphylococcus aureus [2]
  MIC: 2 µg/mL (≈ 6.26 µM)
Bacillus sp.
  MIC: 1 µg/mL (≈ 3.13 µM)

## COc1ccc(N(CC#N)Cc2ccc(Cl)cc2Cl)cc1
Shigella dysenteriae
  MIC: 128 µg/mL (≈ 398 µM)
Pseudomonas aeruginosa
  MIC: 256 µg/mL (≈ 797 µM)
Cyberlindnera jadinii
  MIC: 128 µg/mL (≈ 398 µM)
Escherichia coli
  MIC: 256 µg/mL (≈ 797 µM)
Staphylococcus aureus [1]
  MIC: 128 µg/mL (≈ 398 µM)
Micrococcus luteus
  MIC: 256 µg/mL (≈ 797 µM)
Aspergillus flavus
  MIC: 128 µg/mL (≈ 398 µM)
Bacillus spizizenii
  MIC: 256 µg/mL (≈ 797 µM)
Staphylococcus aureus [2]
  MIC: 128 µg/mL (≈ 398 µM)
Candida
  MIC: 64 µg/mL (≈ 199 µM)
Bacillus sp.
  MIC: 128 µg/mL (≈ 398 µM)
Candida albicans
  MIC: 64 µg/mL (≈ 199 µM)

## CCCCCCCCCCCCN(Cc1nnn[nH]1)c1ccccc1
[3]
  pKa: 4.92
Shigella dysenteriae
  MIC: 256 µg/mL (≈ 745 µM)
Pseudomonas aeruginosa
  MIC: 256 µg/mL (≈ 745 µM)
Cyberlindnera jadinii
  MIC: 64 µg/mL (≈ 186 µM)
Escherichia coli
  MIC: 128 µg/mL (≈ 373 µM)
Staphylococcus aureus [1]
  MIC: 128 µg/mL (≈ 373 µM)
Micrococcus luteus
  MIC: 128 µg/mL (≈ 373 µM)
Aspergillus flavus
  MIC: 32 µg/mL (≈ 93.2 µM)
Bacillus spizizenii
  MIC: 64 µg/mL (≈ 186 µM)
Staphylococcus aureus [2]
  MIC: 128 µg/mL (≈ 373 µM)
Candida
  MIC: 64 µg/mL (≈ 186 µM)
Bacillus sp.
  MIC: 256 µg/mL (≈ 745 µM)
Candida albicans
  MIC: 128 µg/mL (≈ 373 µM)
